The record followed here is patent US20210379147A1, “METHOD AND SYSTEM FOR TREATING CANCER UTILIZING TINAGL1” (The Trustees of Princeton University, priority 2018, published 2021).

In assay [1] the test system is LM2 cells. Description: LM2 orthotopic tumors, single or combined agent treatment. The assay is classed as in vivo, NSG female mice. The conditions noted are these: for spontaneous lung metastasis: LM2 tumors, ex vivo BLI at endpoint. The protocol: FIG. 17A is an image of WB analyses where NSG female mice were injected with 10^4 LM2 cells by MFP injection, and intravenously treated with the indicated reagents twice per week when tumors reached to 2 mm in dimeter, then after 5 weeks of the treatments, the primary tumors of each group were collected and activation of EGFR and FAK in primary tumor of each group were tested by WB.
FIG. 17B is a graph illustrating tumor volumes of each treatment group from FIG. 17A.
FIG. 17C is a graph, quantifying ex vivo BLI results where lungs in mice from FIG. 17A were collected and spontaneous metastasis was examined at the endpoint.
Two molecular targeting reagents, ATN-161 (ATN) and Erlotinib (Erlo) were employed. ATN is an integrin α5β1 antagonist that inhibits the integrin signaling pathway and slows tumor progression. Erlotinib is a well-established small molecular inhibitor of EGFR and is clinically approved for cancer treatment. Mice orthotopically implanted with LM2 cells were split into 6 groups after the tumors reached 2 mm in diameter and subjected to various single or combined agent treatments twice per week [(1) PBS; (2) ATN 30 μg/mouse; (3) Erlo 100 mg/kg; (4) r-Tinagl1 30 μg/mouse; (5) ATN and Erlo; and (6) ATN, Erlo, and r-Tinagl1]. Referring to FIG. 17A, the inhibition of integrin/FAK and EGFR upon each treatment was validated by western blotting and TIC staining.
(§1) For xenograft studies, 8-weeks immunocompromised NOD Scid Gamma (NSG) or immunocompetent FVB females were used. Cells were suspended in 10 μl of PBS for mammary gland injection (MFP), or were suspended in 100 μl of PBS for intravenous injection. For human patient-derived xenograft (PDX, HCL001, kindly provided by Dr. Alana Welm) study, we followed the standard protocol for PDX transplantation, maintenance and digestion of the tumors (DeRose et al., 2011). 2×10^4 cells were suspended in 10 μl of PBS and subjected to MFP injection. For recombinant Tinagl1 (r-Tinagl1), ATN-161, Erlotinib treatments, the mice were injected with 30 μg/mouse, 30 μg/mouse, and 100 mg/kg respectively twice per week via tail-vein. Primary tumors were quantified once per week via caliper measurement. All cell lines used for lung metastasis experiments were stably labeled with a firefly luciferase expressing vector and were monitored by weekly bioluminescent imaging (BLI). At protocol-defined endpoints, lungs were dissected and fixed in bouin's solution and the metastatic lesions were counted.

In assay [2] the test system is primary tumors and lung metastases. Description: IHC staining of tumor samples from treatment groups (Ki67, Casp3, CD31, α-SMA). The conditions noted are these: for tumor cell proliferation (Ki67 staining): primary tumor and lung metastatic nodules. It is filed as in vivo, NSG female mice. As to the method: FIGS. 17F-17I are graphs quantifying positives cells per field where primary tumors were collected from indicated treatment groups from FIG. 17D and then subjected to IHC staining with indicated antibodies, including % Ki67^+ (17F), % Casp3^+ (17G), % CD31^+ (17H), and % α-SMA^+ (17I).
TIC staining was performed as previously described (Wan et al., 2014). Briefly, Paraffin-embedded primary tumor or lung samples were sliced into 4 μm thickness. The slides were baked overnight at 60° C. Next, the tissue slides were washed with PBS after deparaffinization and hydration and then boiled in citrate buffer at 100° C. for 40 min. After treated with 3% H2O2 for 30 min to block endogenous peroxidase, slides were incubated at 4° C. overnight with Ki67 (Leica Biosystem, Ki67-MM1-L-CE-S), cleaved caspase-3 (Cell signaling, 9661S), p-EGFR (Cell signaling, 3777), p-FAK (Cell signaling, 8556), CD31 (Cell signaling, 77699), -SMA (Sigma, A5228), or Tinagl1 (Sigma, HPA048695) antibodies. Following washes with PBS, slides were then incubated with HRP-conjugated goat anti-rabbit or mouse secondary antibody (Genetech) for 30 min at room temperature. Sections were stained by DAB and then counterstained with Gill hematoxylin according to manufacturer's instructions.

In assay [3] the test system is SUM159-M1a. Description: SUM159-M1a orthotopic tumors, single or combined agent treatment. It is filed as in vivo, NSG female mice. The conditions noted are these: SUM159-M1a model. The protocol: FIG. 17D is an image of WB analyses where NSG female mice were injected with 10^4 M1a cells by MFP injection, and treated with the indicated reagents twice per week when tumors reached to 2 mm in diameter, then after 5 weeks of the treatments, the primary tumors of each group were collected and activation of EGFR and FAK in primary tumor of each group was tested by WB.
FIG. 17E is a graph illustrating tumor volumes of each treatment group from FIG. 17D.
as §1, with “For recombinant Tinagl1 (r-Tinagl1), ATN-161, Erlotinib treatments, the mice were injected with 30 μg/mouse, 30 μg/mouse, and 100 mg/kg respectively twice per week via tail-vein.” left out

The target of assay [4] is T1, human EGFR-GFP (human, UniProt P00533 25-1210).
T1 construct: Printed both as GFP-EGFR and EGFR-GFP; the order of the two pieces is not certain; Expressed in HEK293T or LM2 cells, assayed in lysate; also called GFP-EGFR; not shown: GFP
Description: competition co-IP in lysate of HEK293T cells co-expressing Tinagl1-HA and GFP-EGFR; competitor of Tinagl1-HA.

The target of assay [5] is T2, mutant integrin β1 subunit (β1-M) with deletion of aa 130-240 (human, UniProt P05556 21-798).
T2 construct: Overexpressed in HEK293T cells, assayed in lysate; said to be still localized to the cell surface; also called β1-mutant; integrin subunit β1-Δ130-240aa
Description: IP and WB from HEK293T cells overexpressing β1-M and Tinagl1-HA.
Description: Immunoprecipitation (IP) and western blotting (WB) analysis. For an IP experiment, cells were collected in 1.5 ml EP tube when they reached to 100% confluency in 10 or 15 cm dish as indicated. […] Meanwhile, culture media was 100× concentrated and mixed with the cell lysates. The samples were centrifuged, 100 μl of the supernatant was transferred to a new tube as input, and the rest was incubated with 2 μg of IgG, anti-HA, anti-Myc, anti-Integrin subunit β1, anti-Integrin subunit α5 or anti-EGFR (as indicated in each experiment) overnight at 4° C. (recombinant proteins may be added at this step as indicated in each experiment). […] The beads were then washed for 5 times with IP lysis buffer. After final spin, the beads were boiled with 50 μl of 1×SDS Laemmli buffer for 5 min, and the samples were subjected to western blotting (WB). […] 100 μl of combined solution was transferred to a new tube and served as input. The rest was split into two tubes and IP with 2 μg of IgG or His antibody respectively. The IP samples were washed with PBS and analyzed with WB.

T2 sequence (P05556 other isoform, or with tags, fused parts or gaps mutant): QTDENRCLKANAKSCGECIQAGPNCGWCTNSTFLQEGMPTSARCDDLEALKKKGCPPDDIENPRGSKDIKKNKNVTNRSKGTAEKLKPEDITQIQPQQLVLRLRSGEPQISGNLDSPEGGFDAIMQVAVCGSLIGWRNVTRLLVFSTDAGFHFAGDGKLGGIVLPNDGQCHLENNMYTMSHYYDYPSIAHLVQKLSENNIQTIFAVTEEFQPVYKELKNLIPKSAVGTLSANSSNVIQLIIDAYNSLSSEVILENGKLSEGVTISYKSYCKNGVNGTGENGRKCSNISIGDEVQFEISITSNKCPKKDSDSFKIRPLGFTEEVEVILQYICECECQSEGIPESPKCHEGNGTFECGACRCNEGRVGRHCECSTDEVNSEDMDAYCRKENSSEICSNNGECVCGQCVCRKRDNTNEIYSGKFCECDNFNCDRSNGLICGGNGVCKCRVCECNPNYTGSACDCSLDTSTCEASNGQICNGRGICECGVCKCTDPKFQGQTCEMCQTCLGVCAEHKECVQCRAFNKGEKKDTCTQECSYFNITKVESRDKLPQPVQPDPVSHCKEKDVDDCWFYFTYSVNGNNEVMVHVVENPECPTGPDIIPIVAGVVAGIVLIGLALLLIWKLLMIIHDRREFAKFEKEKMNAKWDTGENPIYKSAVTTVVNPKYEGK

Consider ATN-161, for which, in assay [1], the spontaneous lung metastasis entry is recorded as “no reduction was observed”. The “tumor cell proliferation (Ki67 staining)” value in assay [2] is on record as “suppressed proliferation in primary tumor but not lung metastatic nodules”.

`C#Cc1cccc(Nc2ncnc3cc(OCCOC)c(OCCOC)cc23)c1` [Erlotinib]: in assay [1] (LM2, twice per week, ATN 30 μg/mouse, Erlo 100 mg/kg, r-Tinagl1 30 μg/mouse), the primary tumor growth entry was “trended toward reducing primary tumor growth but did not reach statistical significance”. The spontaneous lung metastasis entry in assay [1] is recorded as “reduced spontaneous lung metastasis”. Besides, in assay [3], the lung metastasis result is “reduced lung metastasis”. The “CD31+ endothelium” value in assay [2] (primary and lung metastasis) is on record as “significantly reduced”. The “tumor cell proliferation (Ki67 staining)” value in assay [2] was “inhibited tumor cell proliferation in lung metastatic nodules but not primary sites”.

B1: full length recombinant human Tinagl1 with 6xHis tag at the C-terminus (r-Tinagl1) (other)
chain: AQQGRGRRELAPGLHLRGIRDAGGRYCQEQDLCCRGRADDCALPYLGAICYCDLFCNRTVSDCCPDFWDFCLGVPPPFPPIQGCMHGGRIYPVLGTYWDNCNRCTCQENRQWQCDQEPCLVDPDMIKAINQGNYGWQAGNHSAFWGMTLDEGIRYRLGTIRPSSSVMNMHEIYTVLNPGEVLPTAFEASEKWPNLIHEPLDQGNCAGSWAFSTAAVASDRVSIHSLGHMTPVLSPQNLLSCDTHQQQGCRGGRLDGAWWFLRRRGVVSDHCYPFSGRERDEAGPAPPCMMHSRAMGRGKRQATAHCPNSYVNNNDIYQVTPVYRLGSNDKEIMKELMENGPVQALMEVHEDFFLYKGGIYSHTPVSLGRPERYRRHGTHSVKITGWGEETLPDGRTLKYWTAANSWGPAWGERGHFRIVRGVNECDIESFVLGVWGRVGMEDMGHHVDHHHHHH
notes: also called r-Tiangl1; recombinant Tinagl1 protein
For B1, in assay [4], the binding result is “binds”.

B2: C-terminal HA tagged Tinagl1 (Tinagl1-HA) (other)
chain: AQQGRGRRELAPGLHLRGIRDAGGRYCQEQDLCCRGRADDCALPYLGAICYCDLFCNRTVSDCCPDFWDFCLGVPPPFPPIQGCMHGGRIYPVLGTYWDNCNRCTCQENRQWQCDQEPCLVDPDMIKAINQGNYGWQAGNHSAFWGMTLDEGIRYRLGTIRPSSSVMNMHEIYTVLNPGEVLPTAFEASEKWPNLIHEPLDQGNCAGSWAFSTAAVASDRVSIHSLGHMTPVLSPQNLLSCDTHQQQGCRGGRLDGAWWFLRRRGVVSDHCYPFSGRERDEAGPAPPCMMHSRAMGRGKRQATAHCPNSYVNNNDIYQVTPVYRLGSNDKEIMKELMENGPVQALMEVHEDFFLYKGGIYSHTPVSLGRPERYRRHGTHSVKITGWGEETLPDGRTLKYWTAANSWGPAWGERGHFRIVRGVNECDIESFVLGVWGRVGMEDMGHH
notes: Expressed in LM2 or HEK293T cells; assayed in cell lysate mixed with concentrated culture media; also called Tiangl1-HA; not shown: human influenza hemagglutinin (HA) tag fused to the C-terminal
Consider B2, for which the binding result in assay [5] was “no binding”.
